# Experimental data reported in article PMC8921294, “Inhibition of mitochondrial LonP1 protease by allosteric blockade of ATP binding and hydrolysis via CDDO and its derivatives” (The Journal of Biological Chemistry, 2022).
# Experiments:
# [1] = system: HeLa ρ^0 cells; test: Cytotoxicity/apoptosis in HeLa ρ^0 cells (cleaved PARP, procaspase 3 immunoblot); format: cell-based, human; settings: 7 h, Fig. 4D
# Description: HeLa cells devoid of mitochondrial DNA (HeLa ρ^0) and LCL cells were generated as described previously ([50]). DMEM, RPMI, and fetal bovine serum were purchased from Sigma. All cells were grown with 5% CO2 at 37 °C. LCL cells were cultured in RPMI supplemented with 15% FBS. HeLa Rho 0 cells were cultured in high glucose DMEM (25 mM) (Sigma) supplemented with sodium pyruvate ([…]) and uridine ([…]). CDDO-Me was purchased from Cayman chemicals, and CDDO-AH was synthesized as described previously ([20]). HEK293 cells plated in 60 mm dishes at a confluency of 60 to 70% were transfected with Control or 3′UTR LonP1 siRNA using Lipofectamine 2000 (Invitrogen) and reduced serum OPTI MEM (Sigma) as described in the manufacturer’s protocol to knockdown LonP1, whereas adenoviral transduction was employed to overexpress LonP1. CDDO-Me and CDDO-anhydride were dissolved in DMSO and serially diluted in the respective complete medium and added to HeLa ρ^0 cells and were treated for 7 or 24 h.
# Cells were harvested, centrifuged, and washed with PBS and proteins were extracted by adding the lysis buffer (50 mM Tris, [pH 7.5], 300 mM NaCl, and 0.5% Triton X-100) containing 2X Halt phosphatase and protease cocktail inhibitor (Thermo Scientific) for 20 min on ice. After centrifugation at 14,000 rpm for 15 min at 4 °C, the supernatant was collected and estimated for protein by Bradford’s method. […]
# [2] = biological target: T1, LonP1 C576V (Homo sapiens, UniProt P36776, C576V); test: Endpoint ATPase assay, LonP1 C576V; format: biochemical
# T1 construct: hexa-histidine (N); made in house; host or cells: Rosetta 2 E. coli
# T1 sequence (P36776 68-959 C576V): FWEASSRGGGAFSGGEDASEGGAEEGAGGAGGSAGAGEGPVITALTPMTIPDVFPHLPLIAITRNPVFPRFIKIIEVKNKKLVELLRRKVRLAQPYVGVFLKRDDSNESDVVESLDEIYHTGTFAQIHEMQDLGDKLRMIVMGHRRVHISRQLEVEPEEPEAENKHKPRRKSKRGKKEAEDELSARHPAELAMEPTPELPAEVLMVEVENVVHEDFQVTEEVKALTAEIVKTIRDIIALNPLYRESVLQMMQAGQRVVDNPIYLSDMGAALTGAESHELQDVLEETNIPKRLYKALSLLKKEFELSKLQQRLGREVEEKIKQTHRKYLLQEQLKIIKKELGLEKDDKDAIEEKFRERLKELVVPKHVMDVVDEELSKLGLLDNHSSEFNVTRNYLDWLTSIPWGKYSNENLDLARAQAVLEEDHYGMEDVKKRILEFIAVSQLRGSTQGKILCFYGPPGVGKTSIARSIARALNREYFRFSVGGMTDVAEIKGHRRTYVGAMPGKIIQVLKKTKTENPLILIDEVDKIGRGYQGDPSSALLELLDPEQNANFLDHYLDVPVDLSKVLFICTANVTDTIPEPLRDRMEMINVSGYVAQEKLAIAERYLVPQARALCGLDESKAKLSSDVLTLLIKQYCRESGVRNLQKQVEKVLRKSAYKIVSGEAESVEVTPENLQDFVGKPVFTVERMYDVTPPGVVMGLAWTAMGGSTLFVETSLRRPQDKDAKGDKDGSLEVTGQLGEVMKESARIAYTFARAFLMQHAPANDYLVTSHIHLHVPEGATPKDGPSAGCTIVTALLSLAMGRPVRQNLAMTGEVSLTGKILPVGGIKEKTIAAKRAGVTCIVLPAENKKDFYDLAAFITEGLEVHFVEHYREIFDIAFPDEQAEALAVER
# Description: Human mitochondrial LonP1 and mutants lacking the predicted mitochondrial targeting sequence were fused to an N-terminal hexa-histidine affinity tag, expressed in Rosetta 2 E. Coli, and purified using a nickel agarose column as previously described ([72]) and protein concentration and buffer exchange carried out using Amicon Ultra centrifugal filtration. LonP1 mutant constructs were obtained from the PCR-based QuikChange Site-Directed Mutagenesis Kit.
# ADP-Glo (Promega) assays were performed according to the manufacturer's protocols. Purified wild-type or mutant LonP1 (400 nM monomer), the 26S proteasome (3 nM), or no enzyme controls were preincubated in 96-well plates (60 min, 25 °C) with ten different concentrations of CDDO and its derivatives, TP-82, enoxolone (5 μM) or DMSO vehicle control in buffer (40 mM Tris-HCl (pH 7.5), 20 mM MgCl2, 0.1 mg/ml BSA and 5% DMSO). The 26S and 20S proteasome were also assayed at 0, 0.75, 1.5, 3, 6, and 12 nM in the absence of CDDO derivatives. […] Assay reagents were used to quench further ATPase activity and generate luminescence signals proportional to the concentration of ADP formed. Background (no enzyme control) luminescence values were subtracted, and resultant values were reported as a percentage of the no drug control (100%). […]
Structure (SMILES),Concentration up to which no change in procaspase 3 levels was observed [1],Fold increase in inhibition compared with WT [2],"IC50 ([2]; end-point ATPase assay, read-out: CDDO IC50)"
CC1(C)CC[C@]2(C(=O)OC(=O)[C@]34CCC(C)(C)C[C@H]3[C@H]3C(=O)C=C5[C@@]6(C)C=C(C#N)C(=O)C(C)(C)[C@@H]6CC[C@@]5(C)[C@]3(C)CC4)CC[C@]3(C)[C@H](C(=O)C=C4[C@@]5(C)C=C(C#N)C(=O)C(C)(C)[C@@H]5CC[C@]43C)[C@@H]2C1 [CDDO-anhydride],up to 5 μM,–,–
"CC1(C)CC[C@]2(C(=O)O)CC[C@]3(C)[C@H](C(=O)C=C4[C@@]5(C)C=C(C#N)C(=O)C(C)(C)[C@@H]5CC[C@]43C)[C@@H]2C1 [CDDO, 2-cyano-3,12-dioxooleana-1,9(11)-dien-28-oic acid]",–,2.7,5.2 ± 1.5 µM
